Data on 2 compounds can be found in patent publication US20050020553A1, “Prevention of miscarriage with immunomodulating non-endogenous gestagen compounds” (Solvay Pharmaceuticals GmbH, priority 2001, published 2005).

Molecules are shown by their SMILES.

The target of data set [1] is T1, human progesterone receptor (Homo sapiens, UniProt P06401).
T1 sequence (P06401 1-933): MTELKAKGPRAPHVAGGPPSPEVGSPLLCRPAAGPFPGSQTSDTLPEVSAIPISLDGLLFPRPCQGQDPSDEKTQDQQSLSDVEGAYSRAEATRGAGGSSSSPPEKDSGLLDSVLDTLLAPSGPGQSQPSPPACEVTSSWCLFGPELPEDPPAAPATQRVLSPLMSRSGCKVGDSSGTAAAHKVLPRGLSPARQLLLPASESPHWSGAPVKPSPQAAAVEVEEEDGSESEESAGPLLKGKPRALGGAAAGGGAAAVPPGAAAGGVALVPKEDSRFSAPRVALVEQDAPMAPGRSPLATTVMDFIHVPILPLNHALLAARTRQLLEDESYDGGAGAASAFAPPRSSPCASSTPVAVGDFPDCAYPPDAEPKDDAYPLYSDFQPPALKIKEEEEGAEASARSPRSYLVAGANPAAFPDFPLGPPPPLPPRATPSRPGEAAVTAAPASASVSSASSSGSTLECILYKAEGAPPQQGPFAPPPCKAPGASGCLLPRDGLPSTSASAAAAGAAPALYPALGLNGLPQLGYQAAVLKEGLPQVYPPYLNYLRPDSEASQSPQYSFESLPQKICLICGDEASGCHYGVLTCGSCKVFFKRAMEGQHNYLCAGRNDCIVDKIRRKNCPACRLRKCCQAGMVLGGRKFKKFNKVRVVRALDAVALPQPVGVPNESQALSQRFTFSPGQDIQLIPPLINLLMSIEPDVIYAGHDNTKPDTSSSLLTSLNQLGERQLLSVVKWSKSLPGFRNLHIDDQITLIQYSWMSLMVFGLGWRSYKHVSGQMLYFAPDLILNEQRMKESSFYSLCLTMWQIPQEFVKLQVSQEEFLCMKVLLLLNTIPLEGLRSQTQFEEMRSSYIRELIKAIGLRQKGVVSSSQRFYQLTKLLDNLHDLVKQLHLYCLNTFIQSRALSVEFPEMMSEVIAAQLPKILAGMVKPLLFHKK
The following applies: cited from earlier work.

For data set [2], the system named is pregnant mice. The data set is described as follows: Murine stress-induced (ultrasound) abortion model. It counts as in vivo. From the text: The results of the pharmacological test method given above can also be confirmed in an in vivo test model involving pregnant mice. […] Pregnant mice were exposed to ultrasound on day 5 of gestation. This stress increased the abortion rate of these mice from around 12% to 44%. Treatment with dydrogesterone reduced the abortion in a dose-related manner to as low as 5%.

The conditions of data set [3]: in vivo; cited from earlier work.
Data set [4] has as its system peripheral blood mononuclear cells (=PBMC). Put plainly: Mitogen-induced stimulation of PBMC from women with unexplained habitual abortion, cytokine levels by ELISA. The following applies: for levels of IL-4 / levels of IL-6 / production of the Th1 cytokine IFN-gamma: PHA-stimulated PBMC from women with unexplained habitual abortion, 96 hours in culture, ELISA. Format: cell-based, human (women). From the text:
The effects of dydrogesterone on Th1 and Th2 cytokine profiles produced by mitogen-stimulated peripheral blood mononuclear cells (=PBMC) were established. The effects of dydrogesterone on Th1 and Th2 cytokine production were investigated in peripheral blood lymphocytes from women with unexplained habitual abortion. The peripheral mononuclear cells were stimulated with mitogen (phytohaemagglutinin) in vitro, in the presence and absence of dydrogesterone. The levels of cytokines secreted were measured after 96 hours in culture. […] Several studies have pointed to a deviation of cytokine profiles in women when during pregnancy. Pregnancy is associated with a shift towards Th2 bias, evinced by changes in peripheral T cells, by cytokine production by peripheral lymphocytes and by cytokine changes at the maternal-fetal interface. Unexplained recurrent spontaneous abortion (URSA) seems to be associated with a stronger bias towards Th1 cytokines. Women who have earlier been gone through URSA may therefore be regarded as a pre-selected group of patients that will typically respond to an immunological stimulation by showing a Th1 dominated pattern of immune response. The pharmacological test was therefore performed with a suitable URSA group which comprised of women admitted with spontaneous abortion for evacuation, (i) who have had at least two previous unexplained miscarriages, (ii) who were currently undergoing at least a 3rd abortion and (iii) who had been fully investigated. The relationship between habitual abortion and cytokine production response in 54 women with normal pregnancy (and at least 3 previous normal pregnancies) and 23 women with a history of habitual abortion of unexplained aetiology (URSA group) has been investigated. Peripheral blood was obtained by venipuncture from the abortion group on the day of abortion. PBMC is separated by Ficoll-paque (Pharmacia Biotech, Sweden) density gradient centrifugation, suspended in RPMI medium (=“Roswell Park Memorial Institute”-medium; obtained from GIBCO/BRL, USA) containing 10% fetal calf serum, aliquoted into 96 well tissue culture plates at a density of 100.000 cells per well and then stimulated with the mitogen phytohemagglutinin (=PHA, Sigma Chemicals, USA) at a concentration of […] for a period of 96 hours, with autologous placental antigens or with trophoblast antigens. Progesterone, dydrogesterone (Duphaston®) and RU486 (=mifepristone) was added in different combinations as described below. Progesterone was tested at concentrations of […]. RU486 was tested at equivalent concentrations. Culture supernatants were harvested at 96 hours for determination of the levels of cytokines secreted by the PBMC into the supernatants. Cytokine levels were determined in the supernatants by enzyme-linked immunosorbent assay (=ELISA). Each sample was tested in the following manner: • PBMC+mitogen • PBMC+mitogen+progesterone • PBMC+mitogen+progesterone+RU486 • PBMC+mitogen+dydrogesterone • PBMC+mitogen+dydrogesterone+RU486 • PBMC+mitogen+Carrier • PBMC+mitogen+Carrier+RU486 Determination of cytokine levels by ELISA: Th1 cytokines TNF-α and IFN-γ, and Th2 cytokines IL-4, IL-6 and IL-10 were evaluated in these samples by ELISA using kits that were obtained from Immunotech SA, France. These consisted of “sandwich ELISA”. Briefly, the first step leads to the capture of the relevant cytokine by monoclonal anti-cytokine antibodies bound to the wells of microtiter plates. In the second step, a second biotinylated monoclonal is added together with streptavidin-enzyme (peroxidase or alkaline phosphatase) conjugate. The biotinylated antibody binds to the solid phase antibody-antigen complex, and in turn, binds the conjugate. After incubation the wells are washed and the binding of the streptavidin-enzyme via biotin is followed by the addition of a chromogenic substrate. The intensity of the coloration produced is proportional to the concentration of the cytokine in the sample. […]

The subject of data set [5] is Th1 cytokine production to trophoblast. Conditions: women with recurrent pregnancy loss; Choi et al., Human Reproduction 15/1 (2000); cited from earlier work.
Setting [6] is: ex-vivo, women with spontaneous abortion and habitual abortion.

`CC(=O)[C@H]1CC[C@H]2[C@@H]3C=CC4=CC(=O)CC[C@@]4(C)[C@@H]3CC[C@]12C` [dydrogesterone]: the “selectivity as progesterone receptor agonist” value in data set [1] is given as “highly selective progesterone receptor agonist”. In addition, in data set [2] (murine stress-induced abortion model), the Th1/Th2 cytokine production entry is reported as “shift from Th1 to Th2-cytokine production”. Further, in data set [2] (pregnant mice exposed to ultrasound on day 5 of gestation), the “level of IL-4” value is recorded as “increased level”. The compound further yielded an abortion rate in data set [2] (pregnant mice exposed to ultrasound on day 5 of gestation, stress raised rate from around 12% to 44%, dose-related) of at least 5%. Besides, in data set [3], the “androgenic effects in the mother (hirsutism, voice changes, acne)” value is reported as “no androgenic effects” and the “masculinizing effect on the female fetus” value is on record as “no masculinizing effect”. Besides, in data set [4], the “levels of IL-4” value was “marked increase”, the “levels of IL-6” value is recorded as “marked increase” and the “production of the Th1 cytokine IFN-gamma” value is on record as “reduction”. Moreover, in data set [4] (listed as Dydrogesterone), the “levels of IL-4” value is on record as “increased”, the “levels of IL-6” value is recorded as “increased” and the “production of the Th1 cytokine IFN-gamma” value is listed as “strongly suppressed”. In addition, in data set [4] (setting [6]), the Th1/Th2 bias entry was “shift from a Th1 towards a Th2 bias”, the activity of lymphocytes entry is “reduced the activity of lymphocytes” and the “release of progesterone induced blocking factor (PIBF)” value is given as “increased release”.
For `CC(=O)[C@H]1CC[C@H]2[C@@H]3CCC4=CC(=O)CC[C@]4(C)[C@H]3CC[C@]12C` [progesterone], the “in-vitro embryotoxic Th1 cytokine production to trophoblast” value in data set [5] is “inhibits”.
